Source: patent US6387947B1, “Antimicrobial cosmetic compositions” (E-L Management Corp., priority 1997, dated 2002)
“Also recorded” adds a separate entry of the source.

How the values were obtained:
[1] = tested on: Enterics; test: microbial challenge of nonionic oil-in-water emulsion, pool 1; format: cell-based; settings: for concentration of microbes: 0.473% in emulsion
Method: (§1) A nonionic oil-in-water emulsion is prepared containing 0.473% 3-furan carboxylic acid. The formulation is divided into five portions, each one getting an inoculation at day 0, and a reinoculation after three weeks, of one of the following microbial cultures: (1)Enterics; (2) Pseudomonas; (3)Staphylococcus; (4)Yeast; and (5)Mold. The concentration of microbes in each individual formulation is calculated on the day of the inoculation, and then again calculated on day 2, and at the end of one, two, three (pre-reinoculation) and four weeks, at a variety of pH values. These are also compared with formulations containing 2-furan carboxylic acid and an identical series of microbes, and an acid pH control emulsion without a furan carboxylic acid added. All numbers, other than those listed as “<10”, are log base 10; thus, for example, “6.6” is equivalent to the presence of […] bacteria. Entries of <10 indicate less than 10 colony forming units, the lowest level of detection.

[2] = tested on: Pseudomonas; test: microbial challenge of nonionic oil-in-water emulsion, pool 2; format: cell-based; settings: for concentration of microbes: 0.473% in emulsion
Method: as §1

[3] = tested on: Staphylococcus; test: microbial challenge of nonionic oil-in-water emulsion, pool 3; format: cell-based; settings: for concentration of microbes: 0.473% in emulsion
Method: The formulation is divided into five portions, each one getting an inoculation at day 0, and a reinoculation after three weeks, of one of the following microbial cultures: (1)Enterics; (2) Pseudomonas; (3)Staphylococcus; (4)Yeast; and (5)Mold. The concentration of microbes in each individual formulation is calculated on the day of the inoculation, and then again calculated on day 2, and at the end of one, two, three (pre-reinoculation) and four weeks, at a variety of pH values. These are also compared with formulations containing 2-furan carboxylic acid and an identical series of microbes, and an acid pH control emulsion without a furan carboxylic acid added. All numbers, other than those listed as “<10”, are log base 10; thus, for example, “6.6” is equivalent to the presence of […] bacteria. Entries of <10 indicate less than 10 colony forming units, the lowest level of detection.

[4] = tested on: Yeast; test: microbial challenge of nonionic oil-in-water emulsion, pool 4; format: cell-based; settings: for concentration of microbes: 0.473% in emulsion
Method: as §1

[5] = tested on: Mold; test: microbial challenge of nonionic oil-in-water emulsion, pool 5; format: cell-based; settings: for concentration of microbes: 0.473% in emulsion
Method: as §1

[6] = antiirritant effect against Balsam of Peru on ventral forearms of volunteers; format: in vivo, human; settings: 0.1% in hydroalcohol 1:1, applied twenty minutes before Balsam of Peru; Minolta Chromameter; seven volunteers
Method: Seven volunteers with a history of skin sensitivity to Balsam of Peru are chosen for the study.
The test compounds are applied to the ventral forearms of panelists. The material is allowed to absorb for twenty minutes and then Balsam of Peru, an irritant is applied on the test sites. Skin irritation is measured in terms of increase in skin redness. The degree of redness is measured with a Minolta Chromameter and compared with the controls, the positive control being skin treated with Balsam of Peru alone, and the negative control being a skin site treated with 10% cola solution(a known antiirritant), and challenged like the test products.

[7] = tested on: PLA2 enzyme obtained from snake venom; settings: assay concentrations 0.01, 0.1 and 1 mg/ml
Method: The enzyme reaction is accomplished in a cuvette containing […] of phosphate buffered saline. Fluorometric substrate NBD-C6-HPC is solubilized 1 mM in EtOH, and is diluted in the reaction mixture to yield a 10 μM final concentration. The assay is initiated with the addition of 0.001 units per μl of PLA2 enzyme obtained from snake venom. Enzyme activity is monitored either with or without the presence of potential inhibitors. […] Prior to enzyme addition, samples are measured fluorometrically at excitation 470 and emission 570 to determine background level of fluorescensce. Following enzyme addition, samples are monitored every 15 minutes over a 60 minute period.

[8] = tested on: lymphocyte adhesion to endothelial cells; test: inhibition of lymphocyte adhesion to endothelial cells; format: cell-based, human
Method: Endothelial cells are grown to confluence and washed thoroughly with basal media prior to the experiment to remove all fetal calf serum. The test compounds are then added to the endothelial culture well and incubated for 2 hours. IL-1β is added to stimulated expression of adhesion molecules on the endothelial cells before lymphocytes are added. Lymphocytes are isolated from blood collected from adult human subjects and added to the endothelial culture wells. PHA is added to stimulate adhesion molecule expression in the lymphocytes and the cultures incubated overnight. After a brief washing procedure, cells are incubated with Rose Bengal, and the number of adherent cells assessed by measuring the absorbance at 570 nm.

[9] = tested on: Enterics; test: microbial challenge of nonionic oil-in-water emulsion, pool 1; format: cell-based; settings: 0.473% in emulsion
[10] = tested on: Pseudomonas; test: microbial challenge of nonionic oil-in-water emulsion, pool 2; format: cell-based; settings: 0.473% in emulsion

For `O=C(O)c1ccoc1` [3-furan carboxylic acid], the “antimicrobial activity against Enterics, in words” value [1] was “capable of preventing growth”, the concentration of microbes ([1]; pH 3.0, Week 1) was less than 10 colony forming units and the concentration of microbes ([1]; pH 3.0, Week 2) was less than 10 colony forming units. The concentration of microbes ([1]; pH 3.0, Week 3) was less than 10 colony forming units, the concentration of microbes ([1]; pH 4.0, Day 0) was 6.6 log base 10 and the concentration of microbes ([1]; pH 4.0, Week 1) was less than 10 colony forming units. For the same compound, the concentration of microbes ([1]; pH 4.0, Week 2) was less than 10 colony forming units, the concentration of microbes ([1]; pH 5.0, Week 1) was less than 10 colony forming units and the concentration of microbes ([1]; pH 5.0, Week 3) was less than 10 colony forming units. For the same compound, the “antimicrobial activity against Pseudomonas, in words” value [2] was “capable of preventing growth”, the concentration of microbes ([2]; pH 3.0, Week 3) was less than 10 colony forming units and the concentration of microbes ([2]; pH 4.0, Week 1) was less than 10 colony forming units. For the same compound, the concentration of microbes ([2]; pH 4.0, Week 2) was less than 10 colony forming units, the concentration of microbes ([2]; pH 4.0, Week 3) was less than 10 colony forming units and the concentration of microbes ([2]; pH 5.0, Week 1) was less than 10 colony forming units. The concentration of microbes ([2]; pH 5.0, Week 2) was less than 10 colony forming units, the concentration of microbes ([2]; pH 5.0, Week 4) was less than 10 colony forming units and the “antimicrobial activity against Staphylococcus, in words” value [3] was “capable of preventing growth”. For the same compound, the concentration of microbes ([3]; pH 3.0, Day 0) was 6.3 log base 10, the concentration of microbes ([3]; pH 3.0, Day 2) was less than 10 colony forming units and the concentration of microbes ([3]; pH 3.0, Week 1) was less than 10 colony forming units. It also gave a concentration of microbes ([3]; pH 3.0, Week 2) of less than 10 colony forming units, a concentration of microbes ([3]; pH 3.0, Week 3) of less than 10 colony forming units and a concentration of microbes ([3]; pH 3.0, Week 4) of less than 10 colony forming units. The concentration of microbes ([3]; pH 4.0, Day 0) was 6.3 log base 10, the concentration of microbes ([3]; pH 4.0, Day 2) was less than 10 colony forming units and the concentration of microbes ([3]; pH 4.0, Week 1) was less than 10 colony forming units. The concentration of microbes ([3]; pH 4.0, Week 2) was less than 10 colony forming units, the concentration of microbes ([3]; pH 4.0, Week 3) was less than 10 colony forming units and the concentration of microbes ([3]; pH 4.0, Week 4) was less than 10 colony forming units. It also gave a concentration of microbes ([3]; pH 5.0, Day 0) of 6.3 log base 10, a concentration of microbes ([3]; pH 5.0, Day 2) of less than 10 colony forming units and a concentration of microbes ([3]; pH 5.0, Week 1) of less than 10 colony forming units. For the same compound, the concentration of microbes ([3]; pH 5.0, Week 2) was less than 10 colony forming units, the concentration of microbes ([3]; pH 5.0, Week 3) was less than 10 colony forming units and the concentration of microbes ([3]; pH 5.0, Week 4) was less than 10 colony forming units. For the same compound, the “antimicrobial activity against yeast, in words” value [4] was “substantially reducing the growth; also recorded: superior to 2-furan carboxylic acid”, the concentration of microbes ([4]; pH 3.0, Day 0) was 5.7 log base 10 and the concentration of microbes ([4]; pH 3.0, Day 2) was less than 10 colony forming units. It also gave a concentration of microbes ([4]; pH 3.0, Week 1) of less than 10 colony forming units, a concentration of microbes ([4]; pH 3.0, Week 2) of less than 10 colony forming units and a concentration of microbes ([4]; pH 3.0, Week 3) of less than 10 colony forming units. The concentration of microbes ([4]; pH 3.0, Week 4) was less than 10 colony forming units, the concentration of microbes ([4]; pH 4.0, Day 0) was 5.7 log base 10 and the concentration of microbes ([4]; pH 4.0, Day 2) was 2.5 log base 10. It also gave a concentration of microbes ([4]; pH 4.0, Week 1) of less than 10 colony forming units, a concentration of microbes ([4]; pH 4.0, Week 2) of less than 10 colony forming units and a concentration of microbes ([4]; pH 4.0, Week 3) of less than 10 colony forming units. It also gave a concentration of microbes ([4]; pH 4.0, Week 4) of less than 10 colony forming units, a concentration of microbes ([4]; pH 5.0, Day 0) of 5.7 log base 10 and a concentration of microbes ([4]; pH 5.0, Day 2) of 2.5 log base 10. It also gave a concentration of microbes ([4]; pH 5.0, Week 1) of 2.7 log base 10, a concentration of microbes ([4]; pH 5.0, Week 2) of 1.7 log base 10 and a concentration of microbes ([4]; pH 5.0, Week 3) of 2.0 log base 10. For the same compound, the concentration of microbes ([4]; pH 5.0, Week 4) was 1.8 log base 10, the “antimicrobial activity against Mold, in words” value [5] was “capable of preventing growth; also recorded: superior to 2-furan carboxylic acid” and the concentration of microbes ([5]; pH 3.0, Day 0) was 5.2 log base 10. The concentration of microbes ([5]; pH 3.0, Day 2) was less than 10 colony forming units, the concentration of microbes ([5]; pH 3.0, Week 1) was less than 10 colony forming units and the concentration of microbes ([5]; pH 3.0, Week 2) was less than 10 colony forming units. For the same compound, the concentration of microbes ([5]; pH 3.0, Week 3) was less than 10 colony forming units, the concentration of microbes ([5]; pH 3.0, Week 4) was less than 10 colony forming units and the concentration of microbes ([5]; pH 4.0, Day 0) was 5.2 log base 10. The concentration of microbes ([5]; pH 4.0, Day 2) was less than 10 colony forming units, the concentration of microbes ([5]; pH 4.0, Week 1) was less than 10 colony forming units and the concentration of microbes ([5]; pH 4.0, Week 2) was less than 10 colony forming units. The concentration of microbes ([5]; pH 4.0, Week 3) was less than 10 colony forming units, the concentration of microbes ([5]; pH 4.0, Week 4) was less than 10 colony forming units and the concentration of microbes ([5]; pH 5.0, Day 0) was 5.2 log base 10. For the same compound, the concentration of microbes ([5]; pH 5.0, Day 2) was less than 10 colony forming units, the concentration of microbes ([5]; pH 5.0, Week 1) was less than 10 colony forming units and the concentration of microbes ([5]; pH 5.0, Week 2) was less than 10 colony forming units. For the same compound, the concentration of microbes ([5]; pH 5.0, Week 3) was less than 10 colony forming units, the concentration of microbes ([5]; pH 5.0, Week 4) was less than 10 colony forming units and the “effectiveness in preventing the onset of irritation (reduction of skin redness)” value [6] was 48%. For the same compound, the “PLA2 inhibition, in words” value [7] was “exceptionally active”, the “inhibition of adhesion of polymorphonuclear leukocytes (PMNs) to activated endothelial cells, in words” value [8] was “ability to inhibit the adhesion” and the “inhibition of lymphocyte adhesion, in words (absorbance at 570 nm, Rose Bengal)” value ([8]; concentrations of 0.5% and 1%, IL-1β and PHA stimulated) was “very potent inhibitors of lymphocyte adhesion”. It also gave a concentration of microbes ([9]; pH 3.0, Day 0) of 6.6 log base 10, a concentration of microbes ([9]; pH 3.0, Day 2) of less than 10 colony forming units and a concentration of microbes ([9]; pH 3.0, Week 4) of less than 10 colony forming units. The concentration of microbes ([9]; pH 4.0, Day 2) was less than 10 colony forming units, the concentration of microbes ([9]; pH 4.0, Week 3) was less than 10 colony forming units and the concentration of microbes ([9]; pH 4.0, Week 4) was less than 10 colony forming units. For the same compound, the concentration of microbes ([9]; pH 5.0, Day 0) was 6.6 log base 10, the concentration of microbes ([9]; pH 5.0, Day 2) was less than 10 colony forming units and the concentration of microbes ([9]; pH 5.0, Week 2) was less than 10 colony forming units. For the same compound, the concentration of microbes ([9]; pH 5.0, Week 4) was less than 10 colony forming units, the concentration of microbes ([10]; pH 3.0, Day 2) was less than 10 colony forming units and the concentration of microbes ([10]; pH 3.0, Week 1) was less than 10 colony forming units. For the same compound, the concentration of microbes ([10]; pH 3.0, Week 2) was less than 10 colony forming units, the concentration of microbes ([10]; pH 3.0, Week 4) was less than 10 colony forming units and the concentration of microbes ([10]; pH 4.0, Day 2) was less than 10 colony forming units. It also gave a concentration of microbes ([10]; pH 4.0, Week 4) of less than 10 colony forming units, a concentration of microbes ([10]; pH 5.0, Day 2) of less than 10 colony forming units and a concentration of microbes ([10]; pH 5.0, Week 3) of less than 10 colony forming units.
